Data taken from US5151413A (American Home Products Corporation, priority 1991, dated 1992).
In brackets after ≈: the same amount, converted by molar mass. Read-outs that look alike come from different tables or passages of the source.

Legend:
[1] = system: thymocyte proliferation (cells from the thymus of normal BALB/c mice); assay: comitogen-induced thymocyte proliferation procedure (LAF); format: cell-based; details: read-out: LAF IC50
Description: Immunosuppressive activity was evaluated in an in vitro standard pharmacological test procedure to measure lymphocyte proliferation (LAF) and in an in vivo procedure in which the survival time of a pinch skin graft was evaluated.
The comitogen-induced thymocyte proliferation procedure (LAF) was used as an in vitro measure of the immunosuppressive effects of representative compounds. Briefly, cells from the thymus of normal BALB/c mice are cultured for 72 hours with PHA and IL-1 and pulsed with tritiated thymidine during the last six hours. […] Cells are harvested and incorporated; radioactivity is determined. Inhibition of lymphoproliferation is assessed in percent change in counts per minute from non-drug treated controls. […] [formula]

[2] = system: Candida albicans ATCC 38247; assay: Anti-Candida activity, plate test procedure, strain ATCC 38247; format: cell-based; details: ATCC38247, read-out: Anti-Candida Activity, Minimal Inhibitory Concentration (MIC)
Description: (§1) Antifungal activity of the compounds of this invention was measured against 5 strains of Candida albicans using a plate test procedure for measurement of inhibition. The following represents the typical procedure used. Compound to be tested was placed on sterile dried 1/4" plate disks, and allowed to dry. Agar plates were seeded with fungi and allowed to solidify. The impregnated disks were placed on the seeded Agar surface and incubated for the time required for the particular culture. Results are expressed in MIC (μg/ml) to inhibit growth.

[3] = system: Candida albicans ATCC 38246; assay: Anti-Candida activity, plate test procedure, strain ATCC 38246; format: cell-based; details: ATCC38246, read-out: Anti-Candida Activity, Minimal Inhibitory Concentration (MIC)
Description: as §1

[4] = system: Candida albicans 3669; assay: Anti-Candida activity, plate test procedure, strain 3669; format: cell-based; details: read-out: Anti-Candida Activity, Minimal Inhibitory Concentration (MIC)
Description: as §1

[5] = system: Candida albicans ATCC 10231; assay: Anti-Candida activity, plate test procedure, strain ATCC 10231; format: cell-based; details: ATCC10231, read-out: Anti-Candida Activity, Minimal Inhibitory Concentration (MIC)
Description: as §1

[6] = system: pinch skin grafts from male DBA/2 donors transplanted to male BALB/c recipients; assay: survival time of pinch skin grafts (in vivo); design: species or system BALB/c mice; details: intraperitoneal; DBA/2 donors to BALB/c recipients
Description: The recipients are treated with either varying concentrations of cyclosporin A as test control or the test compound, intraperitoneally. Untreated recipients serve as rejection control. The graft is monitored daily and observations are recorded until the graft becomes dry and forms a blackened scab. This is considered as the rejection day.

[7] = system: Candida albicans ATCC 38248; assay: Anti-Candida activity, plate test procedure, strain ATCC 38248; format: cell-based; details: ATCC38248, read-out: Anti-Candida Activity, Minimal Inhibitory Concentration (MIC)
Description: as §1

[8] = system: Candida albicans; details: especially against Candida albicans; cited from earlier work
[9] = system: immune response; details: cited from earlier work
[10] = Mus musculus, Thymocyte, thymocytes cultured 72 hours with PHA and IL-1, tritiated thymidine last six hours

Compound | IC50 ([1]; thymocytes cultured 72 hours with PHA and IL-1, tritiated thymidine last six hours) | MIC [2] | MIC [3] | MIC [4] | MIC [5] | Skin Graft, mean survival days [6] | IC50 [1, 10] | MIC [7] | antifungal activity (in words) [8] | inhibition of the immune response (in words) [9] | IC50 ([1]; Mus musculus, Thymocyte)
31-[O-[2-(trimethylsilyl)ethoxylmethyl]rapamycin [Example 3] | 17.2 nM |  |  |  |  |  |  |  |  |  | 
CO[C@H]1C[C@@H]2CC[C@@H](C)[C@@](O)(O2)C(=O)C(=O)N2CCCC[C@H]2C(=O)O[C@H]([C@H](C)C[C@@H]2CC[C@@H](O)[C@H](OC)C2)CC(=O)[C@H](C)/C=C(\C)[C@@H](OC(C)(C)OC)[C@@H](OC)C(=O)[C@H](C)C[C@H](C)/C=C/C=C/C=C/1C [Example 1, 31-[O-(1-Methoxy-1-methyl)ethyl]rapamycin] |  | 0.025 µg/mL (≈ 0.0253 µM) | 0.4 µg/mL (≈ 0.406 µM) | 0.4 µg/mL (≈ 0.406 µM) | 0.025 µg/mL (≈ 0.0253 µM) | 10.7 days | 3.2 nM | 0.1 µg/mL (≈ 0.101 µM) |  |  | 
CO[C@H]1C[C@@H]2CC[C@@H](C)[C@@](O)(O2)C(=O)C(=O)N2CCCC[C@H]2C(=O)O[C@H]([C@H](C)C[C@@H]2CC[C@@H](OC(C)(C)OC)[C@H](OC)C2)CC(=O)[C@H](C)/C=C(\C)[C@@H](O)[C@@H](OC)C(=O)[C@H](C)C[C@H](C)/C=C/C=C/C=C/1C [Example 2, 42-[O-(1-methoxy-1-methyl)ethyl]rapamycin] |  | 0.025 µg/mL (≈ 0.0253 µM) | 0.4 µg/mL (≈ 0.406 µM) | 0.2 µg/mL (≈ 0.203 µM) | 0.025 µg/mL (≈ 0.0253 µM) |  | 8.3 nM | 0.1 µg/mL (≈ 0.101 µM) |  |  | 
CO[C@H]1C[C@@H]2CC[C@@H](C)[C@@](O)(O2)C(=O)C(=O)N2CCCC[C@H]2C(=O)O[C@H]([C@H](C)C[C@@H]2CC[C@@H](O)[C@H](OC)C2)CC(=O)[C@H](C)/C=C(\C)[C@@H](O)[C@@H](OC)C(=O)[C@H](C)C[C@H](C)/C=C/C=C/C=C/1C [Rapamycin, reference compound] |  | 0.03 µg/mL (≈ 0.0328 µM) | 0.25 µg/mL (≈ 0.273 µM) | 0.25 µg/mL (≈ 0.273 µM) | 0.03 µg/mL (≈ 0.0328 µM) |  |  | 0.006 µg/mL (≈ 0.00656 µM) | profound antifungal activity | inhibit the immune response | 3.3 to 5.8 nM
